From PubChem BioAssay (NCI)
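Values below derive from 48-hour exposures of cells grown in 96-well plates, with endpoints linearly interpolated between the two concentrations bracketing the appropriate inhibition level. The concentration for full growth arrest is given as TGI.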

What was measured:
Experiment in all cases: DTP human tumour cell line panel, 48 h
786-0 renal = system: 786-0 renal
A498 renal = system: A498 renal
A549 NSCLC = system: A549 NSCLC
ACHN renal = system: ACHN renal
BT-549 breast = system: BT-549 breast
CAKI-1 renal = system: CAKI-1 renal
CCRF-CEM leukemia = system: CCRF-CEM leukemia
COLO 205 colon = system: COLO 205 colon
DU-145 prostate = system: DU-145 prostate
EKVX NSCLC = system: EKVX NSCLC
HCC-2998 colon = system: HCC-2998 colon
HCT-116 colon = system: HCT-116 colon
HCT-15 colon = system: HCT-15 colon
HL-60(TB) leukemia = system: HL-60(TB) leukemia
HOP-62 NSCLC = system: HOP-62 NSCLC
HOP-92 NSCLC = system: HOP-92 NSCLC
HS 578T breast = system: HS 578T breast
IGROV1 ovarian = system: IGROV1 ovarian
K-562 leukemia = system: K-562 leukemia
KM12 colon = system: KM12 colon
LOX IMVI melanoma = system: LOX IMVI melanoma
M14 melanoma = system: M14 melanoma
MALME-3M melanoma = system: MALME-3M melanoma
MCF7 breast = system: MCF7 breast
MDA-MB-231 breast = system: MDA-MB-231 breast
MDA-MB-435 = system: MDA-MB-435
MDA-N = system: MDA-N
NCI-H226 lung = system: NCI-H226 lung
NCI-H23 lung = system: NCI-H23 lung
NCI-H460 lung = system: NCI-H460 lung
NCI/ADR-RES ovarian = system: NCI/ADR-RES ovarian
OVCAR-3 ovarian = system: OVCAR-3 ovarian
OVCAR-4 ovarian = system: OVCAR-4 ovarian
OVCAR-5 ovarian = system: OVCAR-5 ovarian
OVCAR-8 ovarian = system: OVCAR-8 ovarian
PC-3 prostate = system: PC-3 prostate
RPMI-8226 leukemia = system: RPMI-8226 leukemia
RXF 393 renal = system: RXF 393 renal
SF-268 CNS = system: SF-268 CNS
SF-295 CNS = system: SF-295 CNS
SF-539 CNS = system: SF-539 CNS
SK-MEL-2 melanoma = system: SK-MEL-2 melanoma
SK-MEL-28 melanoma = system: SK-MEL-28 melanoma
SK-MEL-5 melanoma = system: SK-MEL-5 melanoma
SK-OV-3 ovarian = system: SK-OV-3 ovarian
SN12C renal = system: SN12C renal
SNB-19 CNS = system: SNB-19 CNS
SNB-75 CNS = system: SNB-75 CNS
SR leukemia = system: SR leukemia
SW-620 colon = system: SW-620 colon
T-47D breast = system: T-47D breast
TK-10 renal = system: TK-10 renal
U251 CNS = system: U251 CNS
UACC-257 melanoma = system: UACC-257 melanoma
UACC-62 melanoma = system: UACC-62 melanoma
UO-31 renal = system: UO-31 renal

CCOC(=O)c1c2ccccc2n2c(=O)n(-c3ccc(OC)cc3)nnc12
TGI (786-0 renal): 51.1 µM | TGI (A498 renal): > 100 µM | TGI (A549 NSCLC): > 100 µM | TGI (ACHN renal): > 100 µM | TGI (BT-549 breast): > 80.7 µM | TGI (CAKI-1 renal): > 79.9 µM | TGI (CCRF-CEM leukemia): > 62.4 µM | TGI (COLO 205 colon): > 100 µM | TGI (DU-145 prostate): > 100 µM | TGI (EKVX NSCLC): > 100 µM | TGI (HCC-2998 colon): > 100 µM | TGI (HCT-116 colon): > 100 µM | TGI (HCT-15 colon): > 100 µM | TGI (HL-60(TB) leukemia): > 100 µM | TGI (HOP-62 NSCLC): 63 µM | TGI (HOP-92 NSCLC): > 65.7 µM | TGI (HS 578T breast): 55.9 µM | TGI (IGROV1 ovarian): > 100 µM | TGI (K-562 leukemia): > 100 µM | TGI (KM12 colon): > 100 µM | TGI (LOX IMVI melanoma): > 100 µM | TGI (M14 melanoma): > 100 µM | TGI (MALME-3M melanoma): > 100 µM | TGI (MCF7 breast): > 67.9 µM | TGI (MDA-MB-231 breast): > 100 µM | TGI (MDA-MB-435): > 100 µM | TGI (MDA-N): > 100 µM | TGI (NCI-H226 lung): 87.9 µM | TGI (NCI-H23 lung): > 81.5 µM | TGI (NCI-H460 lung): > 100 µM | TGI (NCI/ADR-RES ovarian): > 100 µM | TGI (OVCAR-3 ovarian): > 91.1 µM | TGI (OVCAR-4 ovarian): > 64 µM | TGI (OVCAR-5 ovarian): > 100 µM | TGI (OVCAR-8 ovarian): 97.1 µM | TGI (PC-3 prostate): > 66.1 µM | TGI (RPMI-8226 leukemia): > 91.1 µM | TGI (RXF 393 renal): 43.5 µM | TGI (SF-268 CNS): 45.7 µM | TGI (SF-295 CNS): > 62.5 µM | TGI (SF-539 CNS): 45.6 µM | TGI (SK-MEL-2 melanoma): > 100 µM | TGI (SK-MEL-28 melanoma): > 100 µM | TGI (SK-MEL-5 melanoma): > 100 µM | TGI (SK-OV-3 ovarian): > 63.9 µM | TGI (SN12C renal): > 100 µM | TGI (SNB-19 CNS): > 79.9 µM | TGI (SNB-75 CNS): 35.9 µM | TGI (SR leukemia): > 100 µM | TGI (SW-620 colon): > 100 µM | TGI (T-47D breast): 92.7 µM | TGI (TK-10 renal): > 84.5 µM | TGI (U251 CNS): > 31.6 µM | TGI (UACC-257 melanoma): > 100 µM | TGI (UACC-62 melanoma): 99.6 µM | TGI (UO-31 renal): > 100 µM
